Measurements as given in PubChem BioAssay (NCI).
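GI50 = concentration required for 50% inhibition of growth. TGI: concentration producing complete growth inhibition.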

Experiments:
Assay in all cases: inhibition of tumour cell growth, NCI panel, 384-well format
786-0 renal = system: 786-0 renal
A498 renal = system: A498 renal
A549 NSCLC = system: A549 NSCLC
ACHN renal = system: ACHN renal
BT-549 breast = system: BT-549 breast
CAKI-1 renal = system: CAKI-1 renal
CCRF-CEM leukemia = system: CCRF-CEM leukemia
COLO 205 colon = system: COLO 205 colon
DU-145 prostate = system: DU-145 prostate
HCC-2998 colon = system: HCC-2998 colon
HCT-116 colon = system: HCT-116 colon
HCT-15 colon = system: HCT-15 colon
HL-60(TB) leukemia = system: HL-60(TB) leukemia
HOP-62 NSCLC = system: HOP-62 NSCLC
HOP-92 NSCLC = system: HOP-92 NSCLC
HT29 colon = system: HT29 colon
IGROV1 ovarian = system: IGROV1 ovarian
K-562 leukemia = system: K-562 leukemia
KM12 colon = system: KM12 colon
LOX IMVI melanoma = system: LOX IMVI melanoma
M14 melanoma = system: M14 melanoma
MALME-3M melanoma = system: MALME-3M melanoma
MCF7 breast = system: MCF7 breast
MDA-MB-231 breast = system: MDA-MB-231 breast
MDA-MB-435 melanoma = system: MDA-MB-435 melanoma
MDA-MB-468 breast = system: MDA-MB-468 breast
MOLT-4 leukemia = system: MOLT-4 leukemia
NCI-H226 lung = system: NCI-H226 lung
NCI-H23 lung = system: NCI-H23 lung
NCI-H322M lung = system: NCI-H322M lung
NCI-H460 NSCLC = system: NCI-H460 NSCLC
NCI-H522 lung = system: NCI-H522 lung
NCI/ADR-RES ovarian = system: NCI/ADR-RES ovarian
OVCAR-3 ovarian = system: OVCAR-3 ovarian
OVCAR-4 ovarian = system: OVCAR-4 ovarian
OVCAR-5 ovarian = system: OVCAR-5 ovarian
OVCAR-8 ovarian = system: OVCAR-8 ovarian
PC-3 prostate = system: PC-3 prostate
RPMI-8226 leukemia = system: RPMI-8226 leukemia
RXF 393 renal = system: RXF 393 renal
SF-268 CNS = system: SF-268 CNS
SF-295 CNS = system: SF-295 CNS
SF-539 CNS = system: SF-539 CNS
SK-MEL-2 melanoma = system: SK-MEL-2 melanoma
SK-MEL-28 melanoma = system: SK-MEL-28 melanoma
SK-MEL-5 melanoma = system: SK-MEL-5 melanoma
SK-OV-3 ovarian = system: SK-OV-3 ovarian
SN12C renal = system: SN12C renal
SNB-19 CNS = system: SNB-19 CNS
SR leukemia = system: SR leukemia
SW-620 colon = system: SW-620 colon
T-47D breast = system: T-47D breast
TK-10 renal = system: TK-10 renal
U251 glioblastoma = system: U251 glioblastoma
UACC-257 melanoma = system: UACC-257 melanoma
UACC-62 melanoma = system: UACC-62 melanoma
UO-31 renal = system: UO-31 renal

With COCCNCc1ccc(-c2cc3nccc(Oc4ccc(NC(=O)C5(C(=O)Nc6ccc(F)cc6)CC5)cc4F)c3s2)nc1 the GI50 ([…]-0 renal) was 1550 nM, the TGI (786-0 renal) was 2890 nM and the GI50 (A498 renal) was 1410 nM. The TGI (A498 renal) was 2720 nM, the GI50 (A549 NSCLC) was 1280 nM and the TGI (A549 NSCLC) was 2560 nM. It also gave a GI50 (ACHN renal) of 682 nM, a TGI (ACHN renal) of 1960 nM and a GI50 (BT-549 breast) of 1620 nM. The TGI (BT-549 breast) was 2980 nM, the GI50 (CAKI-1 renal) was 1250 nM and the TGI (CAKI-1 renal) was 2560 nM. The GI50 (CCRF-CEM leukemia) was 1420 nM, the TGI (CCRF-CEM leukemia) was 2730 nM and the GI50 (COLO 205 colon) was 1140 nM. For the same molecule, the TGI (COLO 205 colon) was 2370 nM, the GI50 (DU-145 prostate) was 1750 nM and the TGI (DU-145 prostate) was 3140 nM. The GI50 (HCC-2998 colon) was 1480 nM, the TGI (HCC-2998 colon) was 2810 nM and the GI50 (HCT-116 colon) was 1100 nM. For the same molecule, the TGI (HCT-116 colon) was 2310 nM, the GI50 (HCT-15 colon) was 1280 nM and the TGI (HCT-15 colon) was 2550 nM. For the same molecule, the GI50 (HL-60(TB) leukemia) was 1480 nM, the TGI (HL-60(TB) leukemia) was 2800 nM and the GI50 (HOP-62 NSCLC) was 1810 nM. For the same molecule, the TGI (HOP-62 NSCLC) was 3210 nM, the GI50 (HOP-92 NSCLC) was 166 nM and the TGI (HOP-92 NSCLC) was 1050 nM. The GI50 (HT29 colon) was 574 nM, the TGI (HT29 colon) was 1840 nM and the GI50 (IGROV1 ovarian) was 1360 nM. It also gave a TGI (IGROV1 ovarian) of 2670 nM, a GI50 (K-562 leukemia) of 101 nM and a TGI (K-562 leukemia) of 219 nM. For the same molecule, the GI50 (KM12 colon) was 30.9 nM, the TGI (KM12 colon) was 1080 nM and the GI50 (LOX IMVI melanoma) was 2260 nM. The TGI (LOX IMVI melanoma) was 3730 nM, the GI50 (M14 melanoma) was 1370 nM and the TGI (M14 melanoma) was 2670 nM. It also gave a GI50 (MALME-3M melanoma) of 1030 nM, a TGI (MALME-3M melanoma) of 2200 nM and a GI50 (MCF7 breast) of 1150 nM. For the same molecule, the TGI (MCF7 breast) was 2370 nM, the GI50 (MDA-MB-231 breast) was 1320 nM and the TGI (MDA-MB-231 breast) was 2600 nM. For the same molecule, the GI50 (MDA-MB-435 melanoma) was 1370 nM, the TGI (MDA-MB-435 melanoma) was 2680 nM and the GI50 (MDA-MB-468 breast) was 1940 nM. It also gave a TGI (MDA-MB-468 breast) of 3360 nM, a GI50 (MOLT-4 leukemia) of 477 nM and a TGI (MOLT-4 leukemia) of 1630 nM. For the same molecule, the GI50 (NCI-H226 lung) was 1580 nM, the TGI (NCI-H226 lung) was 2960 nM and the GI50 (NCI-H23 lung) was 414 nM. It also gave a TGI (NCI-H23 lung) of 1960 nM, a GI50 (NCI-H322M lung) of 1400 nM and a TGI (NCI-H322M lung) of 2720 nM. For the same molecule, the GI50 (NCI-H460 NSCLC) was 1450 nM, the TGI (NCI-H460 NSCLC) was 2790 nM and the GI50 (NCI-H522 lung) was 1280 nM. For the same molecule, the TGI (NCI-H522 lung) was 2540 nM, the GI50 (NCI/ADR-RES ovarian) was 1560 nM and the TGI (NCI/ADR-RES ovarian) was 2950 nM. It also gave a GI50 (OVCAR-3 ovarian) of 1590 nM, a TGI (OVCAR-3 ovarian) of 2960 nM and a GI50 (OVCAR-4 ovarian) of 1360 nM. The TGI (OVCAR-4 ovarian) was 2660 nM, the GI50 (OVCAR-5 ovarian) was 1630 nM and the TGI (OVCAR-5 ovarian) was 3100 nM. It also gave a GI50 (OVCAR-8 ovarian) of 1570 nM, a TGI (OVCAR-8 ovarian) of 2920 nM and a GI50 (PC-3 prostate) of 1690 nM. It also gave a TGI (PC-3 prostate) of 3090 nM, a GI50 (RPMI-8226 leukemia) of 499 nM and a TGI (RPMI-8226 leukemia) of 1560 nM. For the same molecule, the GI50 (RXF 393 renal) was 768 nM, the TGI (RXF 393 renal) was 2050 nM and the GI50 (SF-268 CNS) was 1570 nM. It also gave a TGI (SF-268 CNS) of 2930 nM, a GI50 (SF-295 CNS) of 396 nM and a TGI (SF-295 CNS) of 1950 nM. It also gave a GI50 (SF-539 CNS) of 466 nM, a TGI (SF-539 CNS) of 1910 nM and a GI50 (SK-MEL-2 melanoma) of 1410 nM. For the same molecule, the TGI (SK-MEL-2 melanoma) was 2710 nM, the GI50 (SK-MEL-28 melanoma) was 1430 nM and the TGI (SK-MEL-28 melanoma) was 2750 nM. For the same molecule, the GI50 (SK-MEL-5 melanoma) was 1130 nM, the TGI (SK-MEL-5 melanoma) was 2350 nM and the GI50 (SK-OV-3 ovarian) was 1180 nM. It also gave a TGI (SK-OV-3 ovarian) of 2420 nM, a GI50 (SN12C renal) of 346 nM and a TGI (SN12C renal) of 1670 nM. The GI50 (SNB-19 CNS) was 1900 nM, the TGI (SNB-19 CNS) was 3330 nM and the GI50 (SR leukemia) was 1130 nM. The TGI (SR leukemia) was 2340 nM, the GI50 (SW-620 colon) was 1260 nM and the TGI (SW-620 colon) was 2530 nM. For the same molecule, the GI50 (T-47D breast) was 1160 nM, the TGI (T-47D breast) was 2390 nM and the GI50 (TK-10 renal) was 1690 nM. The TGI (TK-10 renal) was 3110 nM, the GI50 (U251 glioblastoma) was 1450 nM and the TGI (U251 glioblastoma) was 2780 nM. The GI50 (UACC-257 melanoma) was 186 nM, the TGI (UACC-257 melanoma) was 396 nM and the GI50 (UACC-62 melanoma) was 1240 nM. It also gave a TGI (UACC-62 melanoma) of 2510 nM, a GI50 (UO-31 renal) of 1380 nM and a TGI (UO-31 renal) of 2700 nM.
